Values joined by “and” are separate entries in the source; they are usually repeats but may differ in a detail not shown here. Equal entries are not always repeated.
How the values were obtained:
[1] = system: Alzheimer's Disease Brain Homogenate (ADBH) Aβ aggregates; test: Misfolded Protein Assay, LoD in CSF: ADBH; format: binding, human; details: spiked into CSF
Protocol: (§1) The Ab42 aggregates were prepared as previously described: fibrils were prepared per Stine et al (JBC 2003, 278, p11612), globulomers were prepared per Barghorn et al (J Neurology 2005 95 p834), ADDLs were prepared per Lambert et al (PNAS 1998, 95 p6448), and ASPDs were prepared per Noguchi et al (JBC 2009 284 p32895). Normal CSF was pooled from clinically characterized non-demented patient CSF samples. AD CSF was pooled from clinically-characterized AD patient samples. Alzheimer's Disease Brain Homogenate (ADBH) was prepared by sonication of clinically diagnosed AD patient brain samples in 0.2M.sucrose (1:10 w/v).
(§2) For the capture assay (Misfolded Protein Assay), aliquots of the beads (30 ul) were added to wells of a 96 well plate, followed by 125 ul of sample in 80:20 CSF:TBSTT. The plate was sealed and incubated for 1 h at 37 C with shaking. The plate was washed with TBST and the residual buffer removed. A denaturing solution (0.1 N NaOH) was added to each well and the plate heated to 80 C. for 30 min with shaking. After cooling the plate to RT, a neutralizing buffer (0.12 M NaH2PO3-0.4% TW20,) was added and the plate shaken briefly at RT. The assay was analyzed using the triplex Mesoscale Discovery ELISA kit for Aβ. The Aβ in the samples eluted from the beads were detected per the manufacturer's protocol. […]

Aβ42 Fibrils = molecular target: T1, Aβ42 Fibrils (Homo sapiens, UniProt P05067); test: Misfolded Protein Assay, LoD and capture in CSF: fibrils; format: binding; details: for LoD: spiked into CSF
T1 construct: The Ab42 aggregates were prepared as previously described
Protocol: as §1
(§3) For the capture assay (Misfolded Protein Assay), aliquots of the beads (30 ul) were added to wells of a 96 well plate, followed by 125 ul of sample in 80:20 CSF:TBSTT. The plate was sealed and incubated for 1 h at 37 C with shaking. The plate was washed with TBST and the residual buffer removed. A denaturing solution (0.1 N NaOH) was added to each well and the plate heated to 80 C. for 30 min with shaking. After cooling the plate to RT, a neutralizing buffer (0.12 M NaH2PO3-0.4% TW20,) was added and the plate shaken briefly at RT. The assay was analyzed using the triplex Mesoscale Discovery ELISA kit for Aβ. The Aβ in the samples eluted from the beads were detected per the manufacturer's protocol.
(§4) For the Limit of Detection (LoD) studies, serial dilutions of each aggregate were spiked into CSF and were assayed per the protocol described above. The LoD was defined as 2× over background levels.
(§5) This pattern minors the capture selectivity observed when these species are tested with 3 ul of PSR1 beads and 1 ng/mL of aggregate.

prion protein = prion protein (Homo sapiens, UniProt P04156)
Aβ42 Monomer = molecular target: T2, Aβ42 Monomer (Homo sapiens, UniProt P05067); test: Misfolded Protein Assay, Limit of Detection in CSF: monomer; format: binding; details: spiked into CSF; LoD = 2× over background
T2 construct: The Ab42 aggregates were prepared as previously described
Protocol: as §1, §2

[2] = molecular target: T3, Aβ40 aggregates in AD CSF (Homo sapiens, UniProt P05067); test: Discrimination between AD and normal CSF; format: binding; details: FIG. 39
T3 construct: from tissue; host or cells: pooled cerebrospinal fluid (normal or AD)
Protocol: as §1, §3
For discriminating between AD and normal CSF, pooled normal CSF or pooled Alzheimer's Disease patient CSF, were assayed per the protocol described above.

[3] = molecular target: T4, E22K globulomer (beta amyloid 1-42, Italian mutation) (Homo sapiens, UniProt P05067, E693K); test: NMPA capture of E22K globulomer; format: binding; details: positively charged mutant; FIG. 10
T4 construct: Three beta amyloid 1-42 peptides were generated to test the role of E22; purchased Anaspec
Source text: Three beta amyloid 1-42 peptides were generated to test the role of E22: a wild-type peptide, a mutant peptide containing Arctic mutation E22G with a neutral charge, and a mutant peptide containing Italian mutation E22K with a positive charge. Synthetic peptides were commercially available from Anaspec.
Mutant peptides were oligomerized according to the methods described in Example 3.

Aβ42 ASPD = molecular target: T5, Aβ42 ASPD (Homo sapiens, UniProt P05067); test: Misfolded Protein Assay, LoD and capture in CSF: ASPD; format: binding; details: for LoD: spiked into CSF
T5 construct: The Ab42 aggregates were prepared as previously described
Protocol: as §1, §3, §4, §5

[4] = 3 ul of beads and 1 ng/mL of aggregate

Which results are given for Nab-Nab-Nab-Nbn-Nab-Nbn [PSR1]?
LoD [1]: <0.2 amol; capture of Fibril (Aβ42 Fibrils; [4]): 3636; LoD (Aβ42 Fibrils): <2 amol; LoD (Aβ42 Fibrils; LoD = 2× over background): ~50 pg/mL and 50 pg/mL; distinguishing control and vCJD brain homogenates, prion protein detected (prion protein): clearly distinguished between control and either vCJD or AD samples; LoD (Aβ42 Monomer): ~1000 pg/mL; Aβ40 signal in pooled AD CSF relative to normal pool [2]: higher Aβ40 signal in positive pooled AD CSF relative to unmatched normal pool; capture of E22K globulomer [3]: captured efficiently; capture of ASPD (Aβ42 ASPD; [4]): 1096; LoD (Aβ42 ASPD): ~20 amol; LoD (Aβ42 ASPD; LoD = 2× over background): ~200 pg/mL and 200 pg/mL
